Key:
[1] = tested on: BV173 human leukemia cells; test: Dasatinib plus ESKM in BV173 human leukemia xenograft NSG model; assay type: in vivo, NSG mice; conditions: after 4 weeks of therapy; dasatinib 40 then 20 mg/kg daily IP, stopped on day 11; antibody 100 μg twice a week
Experimental: (§1) In vivo efficacy of ESKM with TKIs was evaluated using NSG mice injected with HLA-A0201^+ leukemic cell line BV173. The protocol used for imatinib and dasatinib therapy in combination with ESKM consisted of injecting 3×10^6 cells per mouse via tail vein, luciferin imaging 6 days after injection to assess tumor engraftment, and initiation of therapy immediately after imaging on day 6. Luciferin imaging was used weekly to monitor tumor growth. The TKI is injected intraperitoneally daily (50 mg/kg for imatinib and 20-40 mg/kg for dasatinib.) The antibody is injected intravenously twice per week.

[2] = cited from earlier work
[3] = mouse, in vivo
Experimental: Three million BV173 human leukemia cells were injected IV by tail vein into NSG mice. […] Immediately after imaging on day 6, therapy was initiated with anti-WT-1 antibody ESKM 100 μg administered by intraperitoneal (IP) injection twice weekly. Dasatinib was also administered by IP injection at 40 mg/kg daily. […] Group A: No therapy; Group B: DMSO only (vehicle control); Group C: dasatinib treatment only; Group D: ESK treatment only; Group E: combination of both dasatinib daily and ESK twice weekly. […] The dose was decreased to 20 mg/kg. […] ESK antibody continued to be administered for the full 4 week treatment cycle. Tumor growth continued to be assessed by luminescence imaging weekly.
After 4 weeks of therapy, animals were imaged by fluorescent luciferin imaging, and the fluorescence was quantified using Living Image® software, quantifying mouse tumor burden.

[4] = tested on: BV173 human leukemia cells; test: Imatinib plus ESKM in BV173 human leukemia xenograft NSG model; assay type: in vivo, NSG mice; conditions: after 5 weeks of therapy; imatinib 50 mg/kg daily IP; antibody 100 μg twice a week
Experimental: as §1
Imatinib was also administered by IP injection at 50 mg/kg daily. Therapy continued for 5 weeks (10 doses of ESKM and 34 doses of imatinib per mouse). Group A: No therapy; Group B: imatinib treatment only; Group C: ESK treatment only; Group D: combination of both imatinib daily and ESK twice weekly. Tumor growth was assessed by luminescence imaging weekly, and clinical activity was assessed daily.
This allows for the quantification of mouse tumor burden. […] (FIG. 2)

BV173 cells = test: ADCC, chromium 51 release assay; assay type: cell-based, human; conditions: imatinib 1 μM, 5 μM or 10 μM, various E:T ratios, fresh BV173 cells
Experimental: ADCC is considered to be one of the major effector mechanisms of therapeutic mAb in humans. Evaluation of efficacy, therefore, begins with in vitro experiments measuring ADCC against BV173 cell line, derived from CML in blastic crisis. Fresh BV173 cells were used for ADCC target cells. WT-1 antibody or its isotype control human IgG1 was incubated at 750 ng/ml with target cells and fresh PBMCs at different effector:target (E:T) ratio for 6 hrs. Imatinib was added at concentrations of 0, 1, 5, and 10 μM. The supernatants were harvested and the cytotoxicity was measured by standard chromium 51 release assay.

In the case of `Cc1nc(Nc2ncc(C(=O)Nc3c(C)cccc3Cl)s2)cc(N2CCN(CCO)CC2)n1` [dasatinib], the “Tumor burden by luciferin imaging” value [1] is listed as “initially had clearance of tumor, but relapsed by week 4 of therapy”, the “Solubility in aqueous solution” value [2] is listed as “not soluble in aqueous solution” and the “Clinical condition of mice” value [3] is listed as “looked ill with significant weight loss”. The Discontinuation of therapy [3] was “discontinued due to toxicity”.

In the case of `Cc1ccc(NC(=O)c2ccc(CN3CCN(C)CC3)cc2)cc1Nc1nccc(-c2cccnc2)n1` [imatinib], the “Tumor burden by luciferin imaging” value [4] is reported as “reduced tumor burden compared to control animals” and the “Effect of imatinib on ADCC mediated by WT-1 antibody” value (BV173 cells) is reported as “does not affect”.
